ChEMBL document CHEMBL1122450, “Biological effects of modified colchicines. 2. Evaluation of catecholic colchicines, colchifolines, colchicide, and novel N-acyl- and N-aroyldeacetylcolchicines” (J Med Chem, 1983)
The source made the active and inactive calls.

Key:
Mus musculus [1] = organism: Mus musculus; assay: Toxicity in the P388 NCI screen defined as the dose that caused an average wt. loss>3g in at least one out of set of mice or the death of one or more of mice; type: organism-based; conditions: in vivo
Mus musculus [2] = assay: Toxicity found after a single intramuscular injection in mice; conditions: in vivo, im
P388 [3] = assay: Potency against lymphocytic leukemia P388 screen in mice.; type: functional, Mus musculus
[4] = test system: Tubulin (Rattus norvegicus); conditions: Brain, at 25 µM
P388 [5] = assay: Potency against lymphocytic leukemia P388 screen in mice; inactive; type: functional, cell-based; conditions: Mus musculus
Mus musculus [6] = organism: Mus musculus; assay: Toxicity in the P388 NCI screen in second assay.; type: organism-based; conditions: in vivo

Structure (SMILES)	Toxicity (Mus musculus [1])	Toxicity (Mus musculus [2])	Potency (P388 [3])	Binding [4]	Potency (P388 [5])	Toxicity (Mus musculus [6])
COc1cc2c(c(OC)c1OC)-c1ccc(OC)c(=O)cc1[C@@H](NC(=O)c1ccccc1)CC2	4.3 µM/kg	60.5 µM/kg	1 µM/kg	–	–	–
CCCC(=O)N[C@H]1CCc2cc(OC)c(OC)c(OC)c2-c2ccc(OC)c(=O)cc21	5.8 µM/kg	5.8 µM/kg	0.7 µM/kg	–	–	–
COc1cc2c(c(OC)c1OC)-c1ccc(OC)c(=O)cc1[C@@H](N(C)C(=O)CO)CC2	2.9 µM/kg	14.5 µM/kg	0.6 µM/kg	99%	–	–
COc1cc2c(c3c1OCO3)-c1ccc(OC)c(=O)cc1[C@@H](NC(C)=O)CC2	104 µM/kg	> 167 µM/kg	–	–	inactive	–
CCC(=O)N[C@H]1CCc2cc(OC)c(OC)c(OC)c2-c2ccc(=O)c(OC)cc21	–	–	–	10%	–	–
COc1cc2c(c(OC)c1OC)-c1ccc(OC)c(=O)cc1[C@@H](NC(C)=O)CC2 [COLCHICINE]	2.5 µM/kg	3 µM/kg	0.4 µM/kg	–	–	–
COc1cc(C(=O)N[C@H]2CCc3cc(OC)c(OC)c(OC)c3-c3ccc(OC)c(=O)cc32)cc(OC)c1OC	72.6 µM/kg	> 180 µM/kg	14 µM/kg	–	–	–
COc1cc2c(c(OC)c1OC)-c1ccc(OC)c(=O)cc1[C@@H](NC(=O)/C=C(\C)C=C=C(C)/C=C/C1=C(C)CCCC1(C)C)CC2	–	–	–	41%	–	–
CCC(=O)N[C@H]1CCc2cc(OC)c(OC)c(OC)c2-c2ccc(OC)c(=O)cc21	–	8.2 µM/kg	–	–	–	–
COc1cc2c(c(O)c1O)-c1ccc(OC)c(=O)cc1[C@@H](NC(C)=O)CC2	> 320 µM/kg	> 450 µM/kg	–	–	inactive	–
CCOC(=O)N[C@H]1CCc2cc(OC)c(OC)c(OC)c2-c2ccc(OC)c(=O)cc21	11.7 µM/kg	–	–	–	–	1.5 µM/kg
COc1cc2c(c(OC)c1OC)-c1ccc(OC)c(=O)cc1[C@@H](NC(=O)CO)CC2 [COLCHIFOLINE]	3 µM/kg	3.9 µM/kg	0.7 µM/kg	–	–	–
COc1cc2c(c(OC)c1OC)-c1ccc(OC)c(=O)cc1[C@@H](NC(=O)COc1ccccc1)CC2	5.1 µM/kg	61.3 µM/kg	1.3 µM/kg	–	–	–
COc1cc2c(c(OC)c1O)-c1ccc(OC)c(=O)cc1[C@@H](NC(=O)C(F)(F)F)CC2	23.5 µM/kg	32.5 µM/kg	3.8 µM/kg	96%	–	–
COc1c(Oc2nnnn2-c2ccccc2)cc2c(c1OC)-c1ccc(OC)c(=O)cc1[C@@H](NC(C)=O)CC2	–	–	–	27%	–	–
COc1cc2c(c(OC)c1OC)-c1ccc(=O)c(OC)cc1[C@@H](NC(=O)CO)CC2	–	–	–	0%	–	–
CCOCC(=O)N[C@H]1CCc2cc(OC)c(OC)c(OC)c2-c2ccc(OC)c(=O)cc21	2.8 µM/kg	9 µM/kg	0.4 µM/kg	–	–	–
COc1c(O)c(O)cc2c1-c1ccc(OC)c(=O)cc1[C@@H](NC(C)=O)CC2	54 µM/kg	> 450 µM/kg	20 µM/kg	–	–	–
COc1cc2c(c(OC)c1OC)-c1cccc(=O)cc1[C@@H](NC(C)=O)CC2 [CHOLCHICIDE]	54.2 µM/kg	168.9 µM/kg	9.2 µM/kg	–	–	–
COc1c2c(cc3c1-c1ccc(OC)c(=O)cc1[C@@H](NC(C)=O)CC3)OCO2	39.1 µM/kg	9.7 µM/kg	<10 µM/kg	–	–	–
COc1cc2c(c(OC)c1Oc1nnnn1-c1ccccc1)-c1ccc(OC)c(=O)cc1[C@@H](NC(C)=O)CC2	–	–	–	52%	–	–
COc1cc2c(c(OC)c1OC)-c1ccc(OC)c(=O)cc1[C@@H](NC(=O)C(C)(C)C)CC2	–	9.3 µM/kg	–	–	–	–
COc1cc(/C=C/C(=O)N[C@H]2CCc3cc(OC)c(OC)c(OC)c3-c3ccc(OC)c(=O)cc32)cc(OC)c1O	–	–	–	69%	–	–
